Experimental data published in US9862730B2, “Imidazothiadiazole derivatives as protease activated receptor 4 (PAR4) inhibitors for treating platelet aggregation” (BRISTOL-MYERS SQUIBB COMPANY, priority 2012, dated 2018).

Molecular target: PAR4 (Homo sapiens (Human), UniProt Q96RI0)
Assay: FLIPR assay in PAR4-expressing HEK293 cells (PAR4 antagonist activity, calcium mobilization)
Assay type: cell-based
Conditions: FLIPR assay as described in Example A
Summary of the method: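 Calcium-flux antagonist readout: compounds preincubated 30 min at room temperature with PAR4-transfected HEK293 cells in HBSS with 10 mM HEPES (0.67% DMSO final), then agonist peptide added. Agonist activity checked on compound addition; cells carry endogenous PAR1.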

Sequence of PAR4 (Q96RI0 18-385): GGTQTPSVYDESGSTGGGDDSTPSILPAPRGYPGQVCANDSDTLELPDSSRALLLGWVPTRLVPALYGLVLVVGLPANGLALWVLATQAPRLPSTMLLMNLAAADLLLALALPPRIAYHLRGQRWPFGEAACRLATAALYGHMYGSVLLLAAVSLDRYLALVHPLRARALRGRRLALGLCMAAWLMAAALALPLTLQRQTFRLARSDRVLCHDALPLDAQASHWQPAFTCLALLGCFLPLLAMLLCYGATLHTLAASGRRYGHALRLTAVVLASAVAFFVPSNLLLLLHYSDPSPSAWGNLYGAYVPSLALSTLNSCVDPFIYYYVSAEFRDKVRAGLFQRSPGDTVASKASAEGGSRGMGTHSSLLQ

IC50 [nM]	Compound
7.47	COc1cc(OCc2cc(OCc3ccccc3)cc(C(F)(F)F)c2)c2cc(-c3cn4nc(OC)sc4n3)oc2c1 [Example 400]
78.8	COc1cc(OC(C)C)c2cc(-c3cn4nc(Br)sc4n3)oc2c1 [Example 299]
6.91	COc1cc(OCc2cccc(OCc3c(C)cc(C)cc3C)c2)c2cc(-c3cn4nc(OC)sc4n3)oc2c1 [Example 377]
565	CCc1nn2cc(-c3nc4cc(C)cc(C)c4o3)nc2s1 [Example 58]
9.53	COc1cc2oc(-c3cn4nc([C@H](C)F)sc4n3)cc2cc1Cl [270-1]
507	CCc1nn2cc(-c3nc4ccc(OCc5ccccc5Cl)cc4o3)nc2s1 [Example 81]
2.62	COc1cc(OCc2cccc(OCc3c(F)ccc(F)c3F)c2)c2cc(-c3cn4nc(OC)sc4n3)oc2c1 [Example 330]
673	CSc1nn2cc(-c3nc4ccc(OCc5ccccc5Cl)cc4o3)nc2s1 [Example 151]
1470	CCOC(=O)CCCCCOc1cccc2cc(-c3cn4nc(CC)sc4n3)oc12 [Example 65]
623	CCOC(=O)CCCOc1cccc2cc(-c3cn4nc(CC)sc4n3)oc12 [Example 60]
13.6	COc1nn2cc(-c3cc4c(C(F)(F)F)cc(C)nc4o3)nc2s1 [Example 305]
24.5	COc1nn2cc(-c3cc4c(OCc5ccccc5)cccc4o3)nc2s1 [Example 210, 6-(4-(Benzyloxy)benzofuran-2-yl)-2-methoxyimidazo[2,1-b][1,3,4]thiadiazole]
1.91	COc1nn2cc(-c3cc4c(OCc5cccc(OCc6ccccc6)c5)cc(F)cc4o3)nc2s1 [Example 427]
260	COc1cc(OCc2cccc(OCc3cccc(OCc4cccc(Cl)c4)c3)c2)c2cc(-c3cn4nc(OC)sc4n3)oc2c1 [Example 375]
3.12	COc1cc(OCc2cccc(OCc3c(OC)cccc3OC)c2)c2cc(-c3cn4nc(OC)sc4n3)oc2c1 [Example 388]
40	CCOc1ccc2nc(-c3cn4nc(SC)sc4n3)oc2c1 [Example 160]
3.52	COc1cc(OCc2cccc(OCc3ccc(C)c(Cl)c3)c2)c2cc(-c3cn4nc(OC)sc4n3)oc2c1 [Example 324]
29.1	COc1cc2oc(-c3cn4nc(C(C)(F)F)sc4n3)cc2cc1Br [Example 272]
50.9	COc1cc(OC)c2cc(-c3cn4nc(C(C)F)sc4n3)oc2c1 (stereo not drawn) [Example 212, 6-(4,6-Dimethoxybenzofuran-2-yl)-2-(1-fluoroethyl)imidazo-[2,1-b][1,3,4]thiadiazole]
41	COc1ccc2oc(-c3cn4nc(SC)sc4n3)nc2c1 [Example 141]
140	COc1nn2cc(-c3nc4ccccc4o3)nc2s1 [Example 111, 2-(2-Methoxyimidazo[2,1-b][1,3,4]thiadiazol-6-yl)benzo[d]oxazole]
322	CSc1nn2cc(-c3cc4c(O)cccc4o3)nc2s1 [Example 214, 2-(2-(Methylthio)imidazo[2,1-b][1,3,4]thiadiazol-6-yl)benzofuran-4-ol]
654	CSc1nn2cc(-c3nc4ccc(OCc5ccccn5)cc4o3)nc2s1 [Example 117, 2-(2-(Methylthio)imidazo[2,1-b][1,3,4]thiadiazol-6-yl)-6-(pyridin-2-ylmethoxy)benzo[d]oxazole]
12.9	CSc1nn2cc(-c3nc4ccccc4s3)nc2s1 [Example 4, 2-(2-(Methylthio)imidazo[2,1-b][1,3,4]thiadiazol-6-yl)benzo[d]thiazole]
442	FC(F)(Cl)c1nn2cc(-c3cc4ccccc4o3)nc2s1 [Example 209, 6-(Benzofuran-2-yl)-2-(chlorodifluoromethyl)imidazo[2,1-b][1,3,4]thiadiazole]
10.7	COc1nn2cc(-c3cc4c(OC)ccc(OC)c4o3)nc2s1 [Example 103]

Compound	IC50 [nM]
COCOc1c(Br)ccc2oc(-c3cn4nc(OC)sc4n3)cc12 [Example 217A, 6-(5-Bromo-4-(methoxymethoxy)benzofuran-2-yl)-2-methoxyimidazo[2,1-b][1,3,4]thiadiazole]	45.1
